This note sets out measurements from patent publication US20160039917A1, “Method for Treating Eclampsia and Preeclampsia” (VELO BIO, LLC, priority 2013, published 2016).

Where two headings read alike, the source gives them in different places.

In test [1] the test system is human placental EDLF production (fetal tissues). The test is described as follows: Placental explant culture (fetal side), EDLF released into media measured by Digibind RIA. It is filed as cell-based. Conditions: for EDLF accumulation in culture: time course; for EDLF in the conditioned media, earlier time points / EDLF concentration in the conditioned media: 2 μM; for EDLF in the conditioned media, earlier time points: early time point experiment; for EDLF production: fetal tissues.

Test [2] deals with placental ROS release (lipid peroxides). Particulars: 48 hours. As to the method: (§1) For these studies placentas from uncomplicated pregnancies were obtained immediately after delivery and 4-5 small tissue pieces (˜5 mm×5 mm×5 mm) were cut off from the inner fetal side. The tissue pieces were dissected into tiny pieces with sterilized scissors. Any visible clots and blood vessels were removed with sterilized tweezers. The remaining villi were washed repeatedly with PBS to remove blood from the intervillous space. Villous tissue of ˜5 mg/well was then patted dry by sterilized paper tower and incubated in a 6-well cell culture plate with 5 mL of serum-free DMEM (Gibson, Grand Island, N.Y., USA) containing 100 U/mL penicillin, 100 μg/mL streptomycin and 0.25 μg/mL amphotericin B (Sigma, St. Louis, Mo., USA) per well for 48 hours at 37° C. in an incubator gassed with 95% air and 5% CO2.
(§2) Conditioned media from placental explants cultured with hydrogen peroxide or under low O2 conditions were collected and assayed by a Lipid Hydroperoxide (LPO) Assay Kit (Cayman Chemical, Ann Arbor, Mich., USA) and a human TNF-alpha Quantikine ELISA Kit (R&D Systems, Minneapolis, Minn., USA) following the manufacturers' methods to determine levels of lipid oxidation.

A further test concerns placental TNFα release. Conditions: 48 hours. As to the method: as §1, §2
In test [3] the test system is human placental EDLF production (maternal tissues). Particulars: 48 hours.
Method: Human placenta was dissected into fetal and maternal tissues. These were incubated in buffered culture media for 48 hours in the absence or presence of graded concentrations of ketoconazole. The culture media was collected and the amount of EDLF released from the tissue was measured using an RIA.
At the end of incubation, samples of the culture medium were collected in 15 mL conical tubes and any residual villi were removed by centrifuging at 4000 RPM for 2 min. The supernatant was stored at −80° C. as conditioned medium until later processing and assay.
After the homogenization and tissue culture processes, homogenate and conditioned media samples were collected and assayed by radioimmunoassay. Digibind (GlaxoSmithKline, Research Triangle Park, N.C., USA) was used as the primary antibody anti-EDLF/ouabain and a rabbit anti-sheep immunoglobulin (IgG) Fab fragment antibody (Jackson ImmunoResearch Laboratories, Inc., West Grove, Pa., USA) was used as the secondary antibody. […] Tritiated ouabain (30.0 Ci/mmol, Perkin Elmer, Boston, Mass., USA) was used as a tracer. Cold ouabain solutions at graded concentrations were used as standards. A 100 μL aliquot of specimen or standard ouabain solution (50 nM, 0.1 μM, 0.2 μM, 0.5 μM, 1 μM, 3 μM), plus 50 μL of a 2.22×10^-8 M tritiated ouabain solution, 300 μL of 1.8 μg/mL Digibind solution, 60 μL of 2.12×10^-7 M 2° Ab solution and 10 μL of 10 mM pH 7.4 Tris buffer were combined and mixed well, then allowed to incubate at room temperature overnight to allow antigen-antibody binding. For the assay of conditioned media, because samples contained DMEM medium, 100 μL of DMEM were added to the reaction solutions for each standard and 100 μL of deionized H2O were added to reaction solutions for specimens to bring them to the same volume. EDLF in the several conditioned media/homogenate specimens or standard cold ouabain in the calibrating solutions competed with the labeled ouabain for Digibind and then the secondary (2°) antibody was added to bind to the primary (1°) antibody-antigen complex to decrease its solubility. After the overnight incubation, 563 μL of 16% polyethylene glycol (PEG)-6000 (Calbiochem, La Jolla, Calif., USA) was added to each reaction solution to precipitate the antibody-antigen complex. After centrifugation at 13,200 rpm for 30 min, the supernatant was discarded and the pellet was resuspended in 500 μL of 0.05 M phosphate buffer (pH 7.0).

For the compound TNFα, the “EDLF released into the culture media” value in test [1] (48 hours, 1.0 nM) is 2.41±0.80 ×10^−8M ouabain equivalents; in test [1] (48 hours, 2.0 nM), 2.75±0.98 ×10^−8M ouabain equivalents; in test [1] (48 hours, 5.0 nM), 2.76±0.80 ×10^−8M ouabain equivalents; in test [1] (48 hours, 10.0 nM), 3.51±0.69 ×10^−8M ouabain equivalents; in test [1] (48 hours, 20.0 nM) it was 4.47±0.99 ×10^−8M ouabain equivalents.

Regarding `CC(=O)[C@@]1(O)CC[C@H]2[C@@H]3CCC4=CC(=O)CC[C@]4(C)[C@H]3CC[C@@]21C` [17P, 17α-hydroxyprogesterone], the “EDLF released into the culture media” value is listed as 3.60±1.06 ×10^−8 M ouabain equivalents in test [1] (48 hours, 0.20 μM); 3.76±0.84 ×10^−8 M ouabain equivalents in test [1] (48 hours, 0.50 μM); 4.40±1.12 ×10^−8 M ouabain equivalents in test [1] (48 hours, 1.0 μM); 4.91±1.52 ×10^−8 M ouabain equivalents in test [1] (48 hours, 2.0 μM). The “EDLF accumulation in culture” value is 12.60±3.81 ×10^−8 M ouabain equivalents in test [1] (2.0 μM, 6 hours); 28.30±6.30 ×10^−8 M ouabain equivalents in test [1] (2.0 μM, 12 hours); 55.39±33.62 ×10^−8 M ouabain equivalents in test [1] (2.0 μM, 24 hours); 95.00±40.44 ×10^−8 M ouabain equivalents in test [1] (2.0 μM, 36 hours); 132.43±74.37 ×10^−8 M ouabain equivalents in test [1] (2.0 μM, 48 hours).

Turning to `OO` [H2O2, hydrogen peroxide], the “released EDLF” value in test [1] (48 hours, 5 nM) was 4.87±1.57 ×10^−8 M ouabain equivalents. Further, the “EDLF levels in the media” value in test [1] (higher concentrations (10 nM, 20 nM)) is “equal or slightly lower than those treated with 5 nM H2O2”. Moreover, the lipid peroxides in test [2] (1.0 nM) came out at 6.62 ± 3.31 µM; in test [2] (5.0 nM), 9.17 ± 3.18 µM; in test [2] (10.0 nM), 11.43 ± 3.67 µM; in test [2] (20.0 nM), 13.13 ± 5.04 µM. Further, the TNFα release is 18.61 ± 13.60 pg/mL in the test on placental TNFα release (1.0 nM), 14.95 ± 6.39 pg/mL in the test on placental TNFα release (5.0 nM), 15.83 ± 6.63 pg/mL with placental TNFα release (10.0 nM) and 13.50 ± 3.43 pg/mL in the test with placental TNFα release (20.0 nM).

`CC(=O)[C@H]1CC[C@H]2[C@@H]3CCC4=CC(=O)CC[C@]4(C)[C@H]3CC[C@]12C` [Progesterone, progesterone]: the “effect on EDLF production” value in test [1] (placenta) is “little or no effect”.

For `CC(=O)[C@H]1CC[C@H]2[C@@H]3CC=C4C[C@@H](O)CC[C@]4(C)[C@H]3CC[C@]12C` [pregnenolone], the “EDLF in the conditioned media, earlier time points” value in test [1] (3 hours) is reported as 77.4+25.0 ×10^−8 M; in test [1] (6 hours) it was 76.8+35.0 ×10^−8 M ouabain equivalents. Also, the “EDLF concentration in the conditioned media” value was 325.6±61.0 ×10^−8 M in test [1] (6 hours); 136.1±27.7 ×10^−8 M in test [1] (12 hours); 148.4±15.1 ×10^−8 M in test [1] (24 hours); 113.6±14.4 ×10^−8 M in test [1] (36 hours); 48.5±7.4 ×10^−8 M in test [1] (48 hours).

Consider `CC(=O)N1CCN(c2ccc(OCC3COC(Cn4ccnc4)(c4ccc(Cl)cc4Cl)O3)cc2)CC1` (stereo not drawn) [ketoconazole], for which the EDLF production is listed as 7.99±13.21 ×10^−8 M RIA ouabain equivalents in test [1] (48 hours, 1.0 μM); 5.58±8.91 ×10^−8 M RIA ouabain equivalents in test [1] (48 hours, 2.0 μM); 1.60±1.62 ×10^−8 M RIA ouabain equivalents in test [1] (48 hours, 5.0 μM); 1.47±1.64 ×10^−8 M RIA ouabain equivalents in test [1] (48 hours, 10.0 μM); 1.25±1.43 ×10^−8 M RIA ouabain equivalents in test [1] (48 hours, 20.0 μM); 1.90±2.05 ×10^−8 M RIA ouabain equivalents in test [3] (1.0 μM). For the same compound, the EDLF production in test [3] (2.0 μM) is on record as 1.79±1.96 ×10^−8 M RIA ouabain equivalents; in test [3] (5.0 μM), 1.83±2.03 ×10^−8 M RIA ouabain equivalents; in test [3] (10.0 μM), 1.73±1.82 ×10^−8 M RIA ouabain equivalents; in test [3] (20.0 μM), 2.46±2.60 ×10^−8 M RIA ouabain equivalents.
